Values of other authors as cited in patent US7010431B2, “Method for effecting computer implemented decision-support in the selection of the drug therapy of patients having a viral disease” (F. Hoffman-LaRoche Ltd., priority 2000, dated 2006).
Like-named read-outs stand apart in the source and are kept apart here.

Key:
[1] = tested on: HIV reverse transcriptase (RT) substitutions; design: key: 0 (low resistance); 3 (high resistance)
[2] = tested on: HIV protease (P) substitutions; design: key: 0 (low resistance); 3 (high resistance)
[3] = substitution 48 V, drug level 100

Cc1ccnc2c1NC(=O)c1cccnc1N2C1CC1 [NVP]
resistance @ level ([1]; substitution 236, drug level 100): 0

Cc1cn([C@H]2C[C@H](N=[N+]=[N-])[C@@H](CO)O2)c(=O)[nH]c1=O [ZDV]
resistance @ level ([1]; substitution 215Y/F + 41, drug level 100): 3

CC(C)(C)NC(=O)[C@@H]1CN(Cc2cccnc2)CCN1C[C@@H](O)C[C@@H](Cc1ccccc1)C(=O)N[C@H]1c2ccccc2C[C@H]1O [IND]
resistance @ level [2, 3]: 0
resistance @ level ([2]; substitution 82A/F/T/S, drug level 100): 1

Nc1nc(NC2CC2)c2ncn([C@H]3C=C[C@@H](CO)C3)c2n1 [ABC]
resistance @ level ([1]; substitution 184 + two of (41, 67, 70, 210, 215, 219), drug level 10000): 2

Nc1ccn([C@@H]2CS[C@H](CO)O2)c(=O)n1 [3TC]
resistance @ level ([1]; substitution 69SS + 215, drug level 100): 2

Cc1c(O)cccc1C(=O)N[C@@H](CSc1ccccc1)[C@H](O)CN1C[C@H]2CCCC[C@H]2C[C@H]1C(=O)NC(C)(C)C [NFV]
resistance @ level ([2]; substitution 84 + 90 + 46, drug level 100): 3

CC(C)(C)NC(=O)[C@@H]1C[C@@H]2CCCC[C@@H]2CN1C[C@@H](O)[C@H](Cc1ccccc1)NC(=O)[C@H](CC(N)=O)NC(=O)c1ccc2ccccc2n1 [FTV]
resistance @ level [2, 3]: 1

CC(C)CN(C[C@@H](O)[C@H](Cc1ccccc1)NC(=O)O[C@H]1CCOC1)S(=O)(=O)c1ccc(N)cc1 [AMP]
resistance @ level ([2]; substitution 90M/I, drug level 10000): 1

Cc1cn([C@H]2C=C[C@@H](CO)O2)c(=O)[nH]c1=O [D4T]
resistance @ level ([1]; substitution three of (41, 67, 70, 210, 215, 219), drug level 100): 1
